Assay results from US20230303564A1, “PYRIMIDINE RING COMPOUND” (MEDSHINE DISCOVERY INC., priority 2020, published 2023).

Columns and labels:
CDK6/CyclinD1 = CDK6/CyclinD1 (Homo sapiens (Human), UniProt Q00534); experiment: CDK6/CyclinD1 enzyme activity test (LANCE Ultra TR-FRET); format: biochemical; settings: 250 μM ATP, 25° C. 120 minutes, read-out: CDK6/Cyclin D1 IC50
Experimental: CDK6/CyclinD1 Enzyme Reaction System
(§1) Preparation of Kinase Buffer:
(§2) The composition of the buffer: 50 mM of hydroxyethylpiperazine ethanesulfonic acid solution at pH 7.5, 1 mM of ethylenediaminetetraacetic acid, 10 mM of magnesium chloride, 0.01% Brij-35, and 2 mM of dithiothreitol.
(§3) Enzymes, substrate LANCE Ultra ULight™-4E-BP-1(Thr37146) Peptide, ATP, and inhibitors were diluted by kinase buffer.
(§4) The compounds to be tested were diluted 5-fold with a multi-channel pipette to the eighth concentration, that is, from 40 μM to 0.512 nM, the concentration of DMSO was 4%, and a double-hole experiment was set up. […] The reaction system was reacted at 25° C. for 120 minutes. After the reaction, 5 μL mixture of EDTA and 2× LANCE™ Detection Buffer (1:1) were added to each well, the reaction was carried out at 25° C. for 5 minutes, after the reaction was completed, 5 μL of LANCE Ultra Eu-anti-P-4E-BP1(Thr37MS) (4 nM) was added to each well, the reaction was carried out at 25° C. for 60 minutes, the reaction signal was detected by Nivo instrument according to the principle of time-resolved fluorescence resonance energy transfer.
(§5) The equation (Sample−Min)/(Max−Min)*100% was used to convert the raw data into inhibition rate, and the value of IC50 can be obtained by curve fitting with four parameters (obtained by log (inhibitor) vs. response-Variable slope mode in GraphPad Prism). The enzymatic inhibitory activity of the compounds of the present disclosure on CDK1/CyclinB1, CDK2/CyclinA2, CDK2/CyclinE1, CDK4/CyclinD1, CDK6/CyclinD1, CDK7/CyclinH/MAT1, CDK9/CyclinT1 was provided in Table 1.

CDK4/CyclinD1 = CDK4/CyclinD1 (Homo sapiens (Human), UniProt P11802); experiment: CDK4/CyclinD1 enzyme activity test (LANCE Ultra TR-FRET); format: biochemical; settings: 350 μM ATP, 25° C. 120 minutes, read-out: CDK4/Cyclin D1 IC50
Sequence of CDK4/CyclinD1 (P11802 whole entry): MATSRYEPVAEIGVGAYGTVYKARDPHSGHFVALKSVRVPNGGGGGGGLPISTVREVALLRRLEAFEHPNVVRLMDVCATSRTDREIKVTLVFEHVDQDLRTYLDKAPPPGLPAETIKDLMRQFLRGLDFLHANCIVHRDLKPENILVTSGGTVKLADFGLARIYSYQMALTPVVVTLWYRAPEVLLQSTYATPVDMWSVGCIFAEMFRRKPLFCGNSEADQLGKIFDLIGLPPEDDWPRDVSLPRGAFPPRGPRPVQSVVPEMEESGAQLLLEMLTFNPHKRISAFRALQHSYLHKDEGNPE
Sequence of CDK4/CyclinD1 (P24385 whole entry partner): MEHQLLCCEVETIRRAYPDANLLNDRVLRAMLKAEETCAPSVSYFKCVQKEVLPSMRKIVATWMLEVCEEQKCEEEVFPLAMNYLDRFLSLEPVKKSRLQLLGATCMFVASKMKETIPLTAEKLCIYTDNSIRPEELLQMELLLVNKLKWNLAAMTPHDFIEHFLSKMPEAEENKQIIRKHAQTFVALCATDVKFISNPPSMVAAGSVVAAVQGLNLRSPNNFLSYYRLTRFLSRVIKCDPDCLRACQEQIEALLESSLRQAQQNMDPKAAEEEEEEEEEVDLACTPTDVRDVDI
Experimental: CDK4/CyclinD1 Enzyme Reaction System
as §1, §2, §3, §4, §5

CDK2/CyclinA2 = CDK2/CyclinA2 (Homo sapiens (Human), UniProt P24941); experiment: CDK2/CyclinA2 enzyme activity test (ADP-Glo); format: biochemical; settings: 50 μM ATP, 25° C. 60 minutes, read-out: CDK2/Cyclin A2 IC50
Experimental: CDK2/CyclinA2 Enzyme Reaction System
(§6) Enzymes, substrates, ATP, and inhibitors were diluted by kinase buffer in the kit. The compounds to be tested were diluted 5-fold with a multi-channel pipette to the eighth concentration, that is, from 50 μM to 0.65 nM, the concentration of DMSO was 5%, and a double-hole experiment was set up. 1 μL of each concentration gradient of inhibitors, 2 μL of CDK2/CyclinA2 enzyme (1.6 ng), 2 μL mixture of substrate and ATP (50 μM ATP, 0.1 μg/μL substrate) were added to the microplates, and the final concentration gradient of the compound was 10 μM to 0.13 nM. The reaction system was reacted at 25° C. for 60 minutes. After the reaction, 5 μL of ADP-Glo reagent was added to each well, the reaction was carried out at 25° C. for 40 minutes, after the reaction was completed, 10 μL of kinase detection reagent was added to each well, the reaction was carried out at 25° C. for 30 minutes, the multiple label analyzer was used to read the chemiluminescence with an integration time of 0.5 seconds
as §5

OVCAR-3 cells = experiment: Cell activity test, anti-proliferation (CellTiter Glo), OVCAR-3; format: cell-based, human; settings: OVCAR-3, 7 days of culture
Experimental: 2) Day 1: Laying Cell Plates
(6) 0.7 mL of cell suspension was pipetted into the counting cup, the cells were counted on ViCell XR, and the cell suspension was diluted separately with culture medium to the required cell concentration for laying cell plates: 1000/30 ul.
(7) Microplates (2 plates) were required, 100 uL of phosphate buffered saline was added to the peripheral wells of the 384-well plate, 30 uL of cell suspension was added to the other wells, and the cell plate was placed into incubator for culture.
(1) Compound preparation: the stock solution of the compound to be tested was 10 mM.
(2) The compound to be tested was diluted 3 times with DMSO for 10 gradients.
(2) The compound to be tested was diluted with culture medium, and the highest final concentration was 10 μM.
(4) 10 μL of the compound was pipetted into the 384-well plate, and then the cell plate was placed back into the incubator for culture.
4) Adding CTG and Reading the Plate
(1) After 7 days of culture, 50 ul CellTiter Glo was added to the cell plate, shaken for 10 minutes in the dark, and left at room temperature for 5 minutes.
(2) The plate was read on Envision with the program: US LUM 384 (CPS). The experiment was originally stored in the personal disk:
1. The mean and standard deviation of 0% inhibition (DMSO row, ZPE) and 100% inhibition (PBS row, HPE) were calculated;
2. Inhibition rate (%)=(1−(sample value-average value of 100% inhibition)/(average value of 0% inhibition-average value of 100% inhibition))*100;
3. The curve was fitted by GraphPad 8.0 software;

CDK1/CyclinB1 = CDK1/CyclinB1 (Homo sapiens (Human), UniProt P06493); experiment: CDK1/CyclinB1 enzyme activity test (ADP-Glo); format: biochemical; settings: 25 μM ATP, 25° C. 120 minutes, read-out: CDK1/Cyclin B IC50
Sequence of CDK1/CyclinB1 (P06493 whole entry): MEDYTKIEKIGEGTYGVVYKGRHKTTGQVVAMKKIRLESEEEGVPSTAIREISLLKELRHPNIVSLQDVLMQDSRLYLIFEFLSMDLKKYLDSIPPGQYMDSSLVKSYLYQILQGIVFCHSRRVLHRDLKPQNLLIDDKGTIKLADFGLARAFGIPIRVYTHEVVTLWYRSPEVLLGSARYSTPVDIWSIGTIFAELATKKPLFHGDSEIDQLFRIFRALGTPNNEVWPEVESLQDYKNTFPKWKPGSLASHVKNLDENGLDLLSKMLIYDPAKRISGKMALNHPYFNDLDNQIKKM
Sequence of CDK1/CyclinB1 (P14635 whole entry partner): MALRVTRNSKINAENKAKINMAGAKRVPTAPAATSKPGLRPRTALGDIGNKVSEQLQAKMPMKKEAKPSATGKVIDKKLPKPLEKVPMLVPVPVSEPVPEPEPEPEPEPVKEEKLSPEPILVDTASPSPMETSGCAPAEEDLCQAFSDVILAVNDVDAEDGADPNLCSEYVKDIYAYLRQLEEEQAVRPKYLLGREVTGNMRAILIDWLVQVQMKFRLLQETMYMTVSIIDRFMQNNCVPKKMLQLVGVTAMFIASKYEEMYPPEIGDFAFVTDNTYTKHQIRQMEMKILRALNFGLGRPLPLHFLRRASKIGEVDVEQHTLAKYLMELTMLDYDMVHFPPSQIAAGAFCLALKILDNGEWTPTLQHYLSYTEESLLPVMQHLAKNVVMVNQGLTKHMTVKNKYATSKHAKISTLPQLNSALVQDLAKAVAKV
Experimental: CDK1/CyclinB1 Enzyme Reaction System
as §6, with “CDK1/CyclinB1” for “CDK2/CyclinA2”, “(12.5” for “(1.6”, “(25” for “(50”, “adenosine triphosphate, 0.2” for “ATP, 0.1”, “120” for “60”, “seconds.” for “seconds”
as §5

CDK2/CyclinE1 = CDK2/CyclinE1 (Homo sapiens (Human), UniProt P24941); experiment: CDK2/CyclinE1 enzyme activity test (ADP-Glo); format: biochemical; settings: 150 μM ATP, 25° C. 60 minutes, read-out: CDK2/Cyclin E1 IC50
Experimental: CDK2/CyclinE1 Enzyme Reaction System
as §6, with “CDK2/CyclinE1” for “CDK2/CyclinA2”, “(2” for “(1.6”, “(150” for “(50”, “seconds.” for “seconds”
as §5

CDK9/CyclinT1 = CDK9/CyclinT1 (Homo sapiens (Human), UniProt P50750); experiment: CDK9/CyclinT1 enzyme activity test (ADP-Glo); format: biochemical; settings: 100 μM ATP, 25° C. 120 minutes, read-out: CDK 9/Cyclin T1 IC50
Sequence of CDK9/CyclinT1 (P50750 whole entry): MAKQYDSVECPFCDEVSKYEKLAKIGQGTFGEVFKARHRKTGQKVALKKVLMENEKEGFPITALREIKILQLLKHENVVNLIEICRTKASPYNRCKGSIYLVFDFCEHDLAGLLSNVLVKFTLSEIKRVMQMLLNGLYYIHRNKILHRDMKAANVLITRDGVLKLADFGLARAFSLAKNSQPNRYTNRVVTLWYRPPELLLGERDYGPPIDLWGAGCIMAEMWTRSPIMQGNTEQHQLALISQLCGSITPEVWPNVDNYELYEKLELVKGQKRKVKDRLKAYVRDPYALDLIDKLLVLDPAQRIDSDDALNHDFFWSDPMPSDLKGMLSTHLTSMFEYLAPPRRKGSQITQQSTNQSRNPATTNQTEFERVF
Sequence of CDK9/CyclinT1 (O60563 whole entry partner): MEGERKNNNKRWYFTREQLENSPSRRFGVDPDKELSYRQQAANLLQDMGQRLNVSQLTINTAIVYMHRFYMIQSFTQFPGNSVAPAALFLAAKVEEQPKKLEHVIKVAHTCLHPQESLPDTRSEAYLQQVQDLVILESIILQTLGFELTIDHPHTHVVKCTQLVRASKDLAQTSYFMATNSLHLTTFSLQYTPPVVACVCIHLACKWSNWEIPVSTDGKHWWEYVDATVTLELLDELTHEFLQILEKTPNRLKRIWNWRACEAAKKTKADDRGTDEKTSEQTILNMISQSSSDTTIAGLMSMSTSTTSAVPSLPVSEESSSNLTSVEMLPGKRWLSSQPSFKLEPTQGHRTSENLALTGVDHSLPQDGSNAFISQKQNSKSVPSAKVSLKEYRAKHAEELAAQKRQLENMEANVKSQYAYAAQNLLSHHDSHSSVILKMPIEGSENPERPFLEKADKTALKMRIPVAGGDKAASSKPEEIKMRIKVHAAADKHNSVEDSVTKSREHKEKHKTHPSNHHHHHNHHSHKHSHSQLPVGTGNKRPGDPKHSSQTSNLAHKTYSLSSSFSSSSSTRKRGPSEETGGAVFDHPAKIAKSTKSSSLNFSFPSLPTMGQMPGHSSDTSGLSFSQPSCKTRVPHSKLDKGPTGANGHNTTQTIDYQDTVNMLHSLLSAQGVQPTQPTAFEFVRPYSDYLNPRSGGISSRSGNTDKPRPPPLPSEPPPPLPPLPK
Experimental: CDK9/CyclinT1 Enzyme Reaction System
as §6, with “of CDK9/CyclinT1” for “of CDK2/CyclinA2”, “enzyme (4” for “enzyme (1.6”, “ATP (100” for “ATP (50”, “ATP, 0.2” for “ATP, 0.1”, “for 120” for “for 60”, “0.5 seconds.” for “0.5 seconds”
as §5

[1] = Pharmacokinetic evaluation in CD-1 (ICR) mice, oral; format: in vivo, mouse; settings: male CD-1 (ICR) mice, oral 5 mg/kg, plasma
Experimental: Experimental Scheme of Compounds 18, 19 and 20
The healthy adult male CD-1 (ICR) mice used in this study were purchased from Pinghu Weitong Lihua Experimental Animal Technology Co., Ltd.
0.300 mL of the stock solution was measured and vortexed for 2 minutes to obtain a homogeneous suspension at a concentration of 1 mg/mL, and the administration vehicle was 1% HPMC in water.
Two male CD-1 (ICR) mice were given 5 mg/kg of the compound to be tested by intragastric administration.
The blood of two animals was collected at each time point by serial blood collection. 30 μL of whole blood was collected respectively at 0.25, 0.5, 1, 2, 4, 8, and 24 hours after administration. The whole blood was placed in an anticoagulant tube, centrifuged at 3200 g for 10 minutes at 4° C., plasma was prepared and stored at −60° C. or lower. The drug concentration in plasma was determined by LC/MS-MS.

[2] = tested on: human ovarian cancer OVCAR-3 cells subcutaneous xenograft tumor; experiment: In vivo efficacy study, OVCAR-3 subcutaneous xenograft tumor BALB/c nude mouse model; settings: for Tumor volume (Day 0): Day 0 (at grouping), OVCAR-3 xenograft, BALB/c nude mice; for Tumor volume (Day 7): 10 mg/kg from day 0 to day 7; for Tumor volume (Day 14): 10 mg/kg from day 0 to day 14; for Tumor volume (Day 21): 10 mg/kg day 0 to day 14, 30 mg/kg from day 14 to day 21
Experimental: In vivo efficacy study of human ovarian cancer OVCAR-3 cells subcutaneous xenograft tumor BALB/c nude mouse model
Cell culture: Human ovarian cancer OVCAR-3 cells were monolayer cultured in vitro, the culture conditions were 10% fetal bovine serum, 100 U/mL Penicillin and 100 μg/mL Streptomycin were added in RPMI 1640 medium, cultured at 37° C. 5% CO2 incubator. Conventional digestion with trypsin-EDTA was performed for passage. When the cell saturation was 80%/90% and the number reached the required level, the cells were collected, counted, and inoculated.
Animals: BALB/c nude mice, female, 6-8 weeks old, weighed 18-22 grams. A total of 95 (42+ additional 53) animals were needed, provided by the Experimental Animal Management Department of Shanghai Institute of Family Planning Sciences (formerly Shanghai Sipulbichem).
Tumor inoculation: 0.2 mL (1×10^7) OVCAR-3 cells (with matrix glue, volume ratio of 1:1) were subcutaneously inoculated on the right back of each mouse, and the mice were grouped administrated when the average tumor volume reached about 150 mm^3.
Dosage and frequency of administration: Day 0 to Day 7, 10 mg/kg; Day 7 to Day 14, 10 mg/kg; Day 14 to Day 21, 30 mg/kg;
Experimental index: The experimental index was used to examine whether tumor growth was inhibited, delayed or cured. Tumor diameters were measured with vernier calipers twice a week. The calculation formula of tumor volume was: V=0.5a×b^2, wherein a and b represented the long and short diameters of the tumor, respectively.

Sequence of CDK6/CyclinD1 (Q00534 whole entry): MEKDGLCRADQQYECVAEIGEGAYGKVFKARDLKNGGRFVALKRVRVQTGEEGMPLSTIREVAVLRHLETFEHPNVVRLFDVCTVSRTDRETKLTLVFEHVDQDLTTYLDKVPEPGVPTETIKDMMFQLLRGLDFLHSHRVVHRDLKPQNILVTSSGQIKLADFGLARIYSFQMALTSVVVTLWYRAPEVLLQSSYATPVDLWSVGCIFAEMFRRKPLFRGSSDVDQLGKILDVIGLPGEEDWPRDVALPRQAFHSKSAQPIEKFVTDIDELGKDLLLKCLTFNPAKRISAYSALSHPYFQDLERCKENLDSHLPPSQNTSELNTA
Sequence of CDK6/CyclinD1 (P24385 whole entry partner): as the sequence (P24385 whole entry partner) above

| Compound | IC50 (CDK6/CyclinD1) | IC50 (CDK4/CyclinD1) | IC50 (CDK2/CyclinA2) | IC50 (CDK1/CyclinB1) | IC50 (CDK2/CyclinE1) | IC50 (CDK9/CyclinT1) | IC50 (OVCAR-3 cells) | Oral exposure AUC0-t [1] | Tumor volume (Day 0) [2] | Tumor volume (Day 7) [2] | Tumor volume (Day 14) [2] | Tumor volume (Day 21) [2] |
| --- | --- | --- | --- | --- | --- | --- | --- | --- | --- | --- | --- | --- |
| CS(=O)(=O)N1CCC(Nc2ncc3ccnc(NC4CCCC4)c3n2)CC1 [Compound 4] | 1.49 nM | 1.5 nM | 0.27 nM | – | – | – | – | – | – | – | – | – |
| CC(Nc1nc(C(F)F)cc2cnc(NC3CCN(S(C)(=O)=O)CC3)nc12)C(F)(F)F (stereo not shown) [Compound 18] | 1.32 nM | 1.56 nM | – | – | 4.72 nM | – | 17 nM | 2.365 µM·h | 151 mm^3 | 233 mm^3 | 393 mm^3 | 529 mm^3 |
| C[C@@H]1CCCN1c1nc(C(F)F)cc2cnc(NC3CCN(S(C)(=O)=O)CC3)nc12 [Compound 25] | 0.46 nM | – | – | – | 4.02 nM | – | < 1 nM | – | 151 mm^3 | 226 mm^3 | 371 mm^3 | 611 mm^3 |

Second part, led by results:

| IC50 (CDK6/CyclinD1) | IC50 (CDK4/CyclinD1) | IC50 (CDK2/CyclinA2) | IC50 (CDK1/CyclinB1) | IC50 (CDK2/CyclinE1) | IC50 (CDK9/CyclinT1) | Compound | IC50 (OVCAR-3 cells) | Oral exposure AUC0-t [1] | Tumor volume (Day 0) [2] | Tumor volume (Day 7) [2] | Tumor volume (Day 14) [2] | Tumor volume (Day 21) [2] |
| --- | --- | --- | --- | --- | --- | --- | --- | --- | --- | --- | --- | --- |
| 1.56 nM | 1.08 nM | 0.52 nM | – | – | – | Cc1cc2cnc(NC3CCN(S(C)(=O)=O)CC3)nc2c(N[C@@H]2CCC[C@@]2(C)O)n1 (racemic) [Compound 6] | – | – | – | – | – | – |
| 0.34 nM | 0.46 nM | – | 8.48 nM | 4.32 nM | 15 nM | CS(=O)(=O)N1CCC(Nc2ncc3cc(C(F)F)nc(N[C@H]4CCCC4(F)F)c3n2)CC1 (single isomer, unassigned) [Compound 21] | 15 nM | – | – | – | – | – |
| 2.28 nM | 3.9 nM | 0.56 nM | 2.72 nM | 1.67 nM | – | C[C@@]1(O)CCC[C@H]1Nc1nccc2cnc(NC3CCN(S(C)(=O)=O)CC3)nc12 [Compound 1] | – | – | – | – | – | – |
| 1.69 nM | 2.59 nM | 1.25 nM | – | 4.15 nM | – | C[C@@]1(O)CCC[C@H]1Nc1nc(C(F)F)cc2cnc(NC3CCN(S(C)(=O)=O)CC3)nc12 [Compound 14] | – | – | – | – | – | – |
